Earlier results as cited in patent publication US12458589B2, “Implantable polymer depots for the controlled release of therapeutic agents” (Foundry Therapeutics, Inc., priority 2018, dated 2025).
Where two headings read alike, the source gives them in different places.

How the values were obtained:
[1] = not given; remark: listed apart in the source

SMILES: CCCCN1CCCCC1C(=O)Nc1c(C)cccc1C (centres unmarked) [bupivacaine]
- generally regarded as safe plasma level: 1,000 ng/mL
- generally regarded as safe plasma level [1]: 1,000 ng/mL
